Reference: paper PMC4385830, “Group I Paks as therapeutic targets in NF2-deficient meningioma” (Oncotarget, 2015)

Columns and labels:
Assay in all cases: Kinase selectivity, Z'-LYTE
Assay type in all cases: biochemical
PRKCE (PKC epsilon) = biological target: T1, PRKCE (PKC epsilon) (Homo sapiens, UniProt Q02156)
T1 construct: purchased Invitrogen (Life Technologies) SelectScreen Z'-LYTE
T1 sequence (Q02156 1-737): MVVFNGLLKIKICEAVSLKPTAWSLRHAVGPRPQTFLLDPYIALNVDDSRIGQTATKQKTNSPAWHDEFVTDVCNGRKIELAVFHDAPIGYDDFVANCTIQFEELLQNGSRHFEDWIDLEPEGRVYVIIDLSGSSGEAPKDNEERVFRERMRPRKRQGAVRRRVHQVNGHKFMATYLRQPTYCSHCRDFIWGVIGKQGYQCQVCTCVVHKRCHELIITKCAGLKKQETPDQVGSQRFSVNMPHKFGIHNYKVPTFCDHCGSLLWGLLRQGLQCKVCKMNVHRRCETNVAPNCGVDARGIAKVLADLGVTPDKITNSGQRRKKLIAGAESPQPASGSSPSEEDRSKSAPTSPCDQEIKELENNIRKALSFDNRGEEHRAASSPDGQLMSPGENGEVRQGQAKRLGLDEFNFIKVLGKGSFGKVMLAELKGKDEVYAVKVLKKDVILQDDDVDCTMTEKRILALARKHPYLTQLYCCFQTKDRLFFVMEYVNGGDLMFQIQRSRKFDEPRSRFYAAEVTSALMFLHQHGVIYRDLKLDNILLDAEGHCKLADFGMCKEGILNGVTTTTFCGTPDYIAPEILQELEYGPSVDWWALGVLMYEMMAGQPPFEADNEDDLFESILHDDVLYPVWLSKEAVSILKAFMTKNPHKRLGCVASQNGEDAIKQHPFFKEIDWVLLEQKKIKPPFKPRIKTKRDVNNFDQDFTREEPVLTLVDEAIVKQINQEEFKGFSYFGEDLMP
Outline: (§1)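 Fluorescence read-out reflects differential proteolytic cleavage of phosphorylated versus non-phosphorylated peptide in a coupled-enzyme format. Reactions use recombinant enzymes with kinase-specific optimized mixtures.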

FGFR3 = biological target: T2, FGFR3 (Homo sapiens, UniProt P22607)
T2 construct: purchased Invitrogen (Life Technologies) SelectScreen Z'-LYTE
Outline: as §1

MAPK8 (JNK1) = biological target: T3, MAPK8 (JNK1) (Homo sapiens, UniProt P45983)
T3 construct: purchased Invitrogen (Life Technologies) SelectScreen Z'-LYTE
T3 sequence (P45983 whole entry): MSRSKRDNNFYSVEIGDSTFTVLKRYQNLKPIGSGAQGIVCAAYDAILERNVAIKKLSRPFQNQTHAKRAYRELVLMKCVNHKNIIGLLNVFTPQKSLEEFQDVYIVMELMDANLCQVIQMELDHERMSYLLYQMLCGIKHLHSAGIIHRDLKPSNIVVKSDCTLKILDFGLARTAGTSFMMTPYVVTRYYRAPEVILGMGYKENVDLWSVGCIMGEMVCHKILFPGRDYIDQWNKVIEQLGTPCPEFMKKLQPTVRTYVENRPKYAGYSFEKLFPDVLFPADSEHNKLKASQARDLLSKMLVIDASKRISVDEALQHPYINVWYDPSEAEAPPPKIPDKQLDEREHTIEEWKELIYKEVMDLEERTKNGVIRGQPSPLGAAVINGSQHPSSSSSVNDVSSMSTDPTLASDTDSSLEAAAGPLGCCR
Outline: as §1

TEK (Tie2) = biological target: T4, TEK (Tie2) (Homo sapiens, UniProt Q02763)
T4 construct: purchased Invitrogen (Life Technologies) SelectScreen Z'-LYTE
T4 sequence (Q02763 23-1124): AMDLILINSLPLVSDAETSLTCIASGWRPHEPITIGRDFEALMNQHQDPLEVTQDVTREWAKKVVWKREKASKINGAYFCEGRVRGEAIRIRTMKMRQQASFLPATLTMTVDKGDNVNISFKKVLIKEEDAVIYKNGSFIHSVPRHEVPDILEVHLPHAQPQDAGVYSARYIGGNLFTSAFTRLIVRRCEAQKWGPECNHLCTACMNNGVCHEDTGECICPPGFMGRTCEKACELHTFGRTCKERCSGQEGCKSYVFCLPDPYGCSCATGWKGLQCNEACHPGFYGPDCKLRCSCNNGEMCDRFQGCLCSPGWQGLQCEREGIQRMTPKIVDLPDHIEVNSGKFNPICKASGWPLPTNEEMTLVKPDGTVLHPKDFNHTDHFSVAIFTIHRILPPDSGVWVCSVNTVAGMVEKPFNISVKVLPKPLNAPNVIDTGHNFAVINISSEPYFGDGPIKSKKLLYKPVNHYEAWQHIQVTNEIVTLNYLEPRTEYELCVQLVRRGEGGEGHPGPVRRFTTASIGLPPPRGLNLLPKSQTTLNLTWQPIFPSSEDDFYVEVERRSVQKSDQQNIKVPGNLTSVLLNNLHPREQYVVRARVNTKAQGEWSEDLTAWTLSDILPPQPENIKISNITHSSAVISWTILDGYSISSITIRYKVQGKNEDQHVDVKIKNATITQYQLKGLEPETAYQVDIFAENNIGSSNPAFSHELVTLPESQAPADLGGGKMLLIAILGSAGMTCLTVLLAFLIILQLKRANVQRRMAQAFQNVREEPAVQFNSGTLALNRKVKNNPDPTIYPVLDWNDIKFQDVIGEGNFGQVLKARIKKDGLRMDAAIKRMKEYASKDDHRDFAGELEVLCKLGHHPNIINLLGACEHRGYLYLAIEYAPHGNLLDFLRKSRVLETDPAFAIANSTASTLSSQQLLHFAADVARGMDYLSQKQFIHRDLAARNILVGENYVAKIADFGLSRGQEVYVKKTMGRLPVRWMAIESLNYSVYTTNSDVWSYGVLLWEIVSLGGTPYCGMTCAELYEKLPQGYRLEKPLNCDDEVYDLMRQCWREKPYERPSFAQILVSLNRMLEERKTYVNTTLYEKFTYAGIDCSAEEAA
Outline: as §1

MAPK3 (ERK1) = biological target: T5, MAPK3 (ERK1) (Homo sapiens, UniProt P27361)
T5 construct: purchased Invitrogen (Life Technologies) SelectScreen Z'-LYTE
T5 sequence (P27361 whole entry): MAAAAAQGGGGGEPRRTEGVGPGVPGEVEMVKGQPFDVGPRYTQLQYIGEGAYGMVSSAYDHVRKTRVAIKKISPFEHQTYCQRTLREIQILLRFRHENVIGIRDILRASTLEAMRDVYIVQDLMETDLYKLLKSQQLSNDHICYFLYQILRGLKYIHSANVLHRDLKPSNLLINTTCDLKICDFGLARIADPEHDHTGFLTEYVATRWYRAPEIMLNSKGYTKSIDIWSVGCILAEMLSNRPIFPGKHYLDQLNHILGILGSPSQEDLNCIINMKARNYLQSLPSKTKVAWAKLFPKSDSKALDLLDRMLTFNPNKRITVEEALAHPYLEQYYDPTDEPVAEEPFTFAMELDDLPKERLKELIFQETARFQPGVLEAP
Outline: as §1

MAPK10 (JNK3) = biological target: T6, MAPK10 (JNK3) (Homo sapiens, UniProt P53779)
T6 construct: purchased Invitrogen (Life Technologies) SelectScreen Z'-LYTE
T6 sequence (P53779 whole entry): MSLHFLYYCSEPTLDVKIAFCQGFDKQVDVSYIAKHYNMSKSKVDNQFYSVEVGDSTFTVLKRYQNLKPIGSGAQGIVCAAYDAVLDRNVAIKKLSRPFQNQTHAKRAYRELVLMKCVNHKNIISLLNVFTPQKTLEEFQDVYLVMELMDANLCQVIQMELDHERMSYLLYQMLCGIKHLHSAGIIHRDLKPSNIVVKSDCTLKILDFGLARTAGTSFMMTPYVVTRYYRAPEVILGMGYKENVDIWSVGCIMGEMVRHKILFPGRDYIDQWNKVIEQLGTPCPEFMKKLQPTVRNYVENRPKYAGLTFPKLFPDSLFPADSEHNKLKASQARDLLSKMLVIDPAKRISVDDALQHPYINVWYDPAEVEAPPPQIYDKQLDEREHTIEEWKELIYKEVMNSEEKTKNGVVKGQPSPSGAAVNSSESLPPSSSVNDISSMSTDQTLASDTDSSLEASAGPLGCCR
Outline: as §1

KIT = biological target: T7, KIT (Homo sapiens, UniProt P10721)
T7 construct: purchased Invitrogen (Life Technologies) SelectScreen Z'-LYTE
T7 sequence (P10721 26-976): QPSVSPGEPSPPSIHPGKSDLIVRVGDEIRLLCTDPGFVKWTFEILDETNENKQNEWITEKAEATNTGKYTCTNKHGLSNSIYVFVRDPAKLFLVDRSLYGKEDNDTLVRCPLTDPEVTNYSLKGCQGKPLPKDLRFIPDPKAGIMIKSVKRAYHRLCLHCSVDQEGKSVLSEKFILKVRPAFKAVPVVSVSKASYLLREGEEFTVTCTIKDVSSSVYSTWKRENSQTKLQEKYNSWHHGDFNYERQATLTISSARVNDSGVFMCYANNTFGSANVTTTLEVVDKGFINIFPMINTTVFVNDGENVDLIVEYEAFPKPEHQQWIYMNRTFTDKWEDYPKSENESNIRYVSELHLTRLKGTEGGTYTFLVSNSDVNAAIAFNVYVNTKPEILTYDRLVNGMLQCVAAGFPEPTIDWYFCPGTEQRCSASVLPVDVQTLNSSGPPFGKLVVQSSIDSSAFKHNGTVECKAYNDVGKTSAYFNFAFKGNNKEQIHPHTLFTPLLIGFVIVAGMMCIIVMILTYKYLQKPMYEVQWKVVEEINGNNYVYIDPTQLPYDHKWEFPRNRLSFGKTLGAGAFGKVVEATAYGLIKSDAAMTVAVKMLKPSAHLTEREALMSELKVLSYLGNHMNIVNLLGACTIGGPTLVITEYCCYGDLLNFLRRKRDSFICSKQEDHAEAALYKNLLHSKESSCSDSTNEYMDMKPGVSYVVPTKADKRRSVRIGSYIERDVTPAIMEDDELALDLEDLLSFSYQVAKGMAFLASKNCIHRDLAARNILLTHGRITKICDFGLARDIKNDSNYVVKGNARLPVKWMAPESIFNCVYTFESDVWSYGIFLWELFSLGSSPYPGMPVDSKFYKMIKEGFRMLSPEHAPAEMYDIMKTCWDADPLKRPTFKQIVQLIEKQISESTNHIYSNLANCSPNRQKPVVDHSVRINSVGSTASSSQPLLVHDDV
Outline: as §1

PRKCB1 (PKC beta I) = biological target: T8, PRKCB1 (PKC beta I) (Homo sapiens, UniProt P05771)
T8 construct: purchased Invitrogen (Life Technologies) SelectScreen Z'-LYTE
Outline: as §1

Pak4 = biological target: T9, Pak4 (Homo sapiens, UniProt O96013)
T9 construct: purchased Invitrogen (Life Technologies) SelectScreen Z'-LYTE
T9 sequence (O96013 whole entry): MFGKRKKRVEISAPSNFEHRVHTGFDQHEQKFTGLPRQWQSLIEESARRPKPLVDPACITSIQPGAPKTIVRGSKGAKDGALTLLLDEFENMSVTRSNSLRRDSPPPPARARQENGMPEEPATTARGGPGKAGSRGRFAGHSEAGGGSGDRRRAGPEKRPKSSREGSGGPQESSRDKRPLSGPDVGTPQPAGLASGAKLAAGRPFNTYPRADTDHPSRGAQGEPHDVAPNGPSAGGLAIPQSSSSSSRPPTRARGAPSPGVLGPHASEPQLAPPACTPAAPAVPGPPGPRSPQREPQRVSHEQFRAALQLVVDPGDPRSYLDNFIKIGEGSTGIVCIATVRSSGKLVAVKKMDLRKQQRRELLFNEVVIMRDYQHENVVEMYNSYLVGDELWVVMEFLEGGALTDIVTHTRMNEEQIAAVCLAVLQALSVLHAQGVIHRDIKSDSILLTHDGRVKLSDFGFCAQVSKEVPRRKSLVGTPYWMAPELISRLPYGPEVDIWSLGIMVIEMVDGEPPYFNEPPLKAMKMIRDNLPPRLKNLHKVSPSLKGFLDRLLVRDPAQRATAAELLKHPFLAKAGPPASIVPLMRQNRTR
Outline: as §1

SPHK1 = biological target: T10, SPHK1 (Homo sapiens, UniProt Q9NYA1)
T10 construct: purchased Invitrogen (Life Technologies) SelectScreen Z'-LYTE
T10 sequence (Q9NYA1 whole entry): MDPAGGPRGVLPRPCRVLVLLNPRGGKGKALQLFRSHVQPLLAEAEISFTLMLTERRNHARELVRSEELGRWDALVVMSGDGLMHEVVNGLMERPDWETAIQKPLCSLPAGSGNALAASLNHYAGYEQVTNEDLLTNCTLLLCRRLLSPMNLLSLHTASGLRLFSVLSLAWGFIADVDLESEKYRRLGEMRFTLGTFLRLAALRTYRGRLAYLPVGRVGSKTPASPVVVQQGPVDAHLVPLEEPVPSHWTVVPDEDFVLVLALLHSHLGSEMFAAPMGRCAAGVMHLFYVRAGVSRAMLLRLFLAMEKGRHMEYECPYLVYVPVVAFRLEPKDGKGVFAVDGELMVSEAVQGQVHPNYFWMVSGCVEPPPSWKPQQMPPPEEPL
Outline: as §1

FLT1 (VEGFR1) = biological target: T11, FLT1 (VEGFR1) (Homo sapiens, UniProt P17948)
T11 construct: purchased Invitrogen (Life Technologies) SelectScreen Z'-LYTE
Outline: as §1

ROCK2 = biological target: T12, ROCK2 (Homo sapiens, UniProt O75116)
T12 construct: purchased Invitrogen (Life Technologies) SelectScreen Z'-LYTE
Outline: as §1

ROCK1 = biological target: T13, ROCK1 (Homo sapiens, UniProt Q13464)
T13 construct: purchased Invitrogen (Life Technologies) SelectScreen Z'-LYTE
Outline: as §1

MAP2K2 (MEK2) = biological target: T14, MAP2K2 (MEK2) (Homo sapiens, UniProt P36507)
T14 construct: purchased Invitrogen (Life Technologies) SelectScreen Z'-LYTE
T14 sequence (P36507 whole entry): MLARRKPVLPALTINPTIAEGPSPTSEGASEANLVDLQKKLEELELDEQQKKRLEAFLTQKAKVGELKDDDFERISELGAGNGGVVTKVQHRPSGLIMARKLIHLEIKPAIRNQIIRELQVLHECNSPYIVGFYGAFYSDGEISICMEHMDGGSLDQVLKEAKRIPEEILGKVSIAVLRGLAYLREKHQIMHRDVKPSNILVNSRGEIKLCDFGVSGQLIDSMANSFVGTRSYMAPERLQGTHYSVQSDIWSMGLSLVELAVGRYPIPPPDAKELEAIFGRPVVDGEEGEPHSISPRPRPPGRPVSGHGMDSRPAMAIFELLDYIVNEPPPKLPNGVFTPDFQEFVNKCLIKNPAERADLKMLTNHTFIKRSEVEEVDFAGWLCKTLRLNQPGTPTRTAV
Outline: as §1

JAK2 = biological target: T15, JAK2 (Homo sapiens, UniProt O60674)
T15 construct: purchased Invitrogen (Life Technologies) SelectScreen Z'-LYTE
Outline: as §1

SRC = biological target: T16, SRC (Homo sapiens, UniProt P12931)
T16 construct: purchased Invitrogen (Life Technologies) SelectScreen Z'-LYTE
Outline: as §1

STK22D (TSSK1) = biological target: T17, STK22D (TSSK1) (Homo sapiens, UniProt Q9BXA7)
T17 construct: purchased Invitrogen (Life Technologies) SelectScreen Z'-LYTE
T17 sequence (Q9BXA7 1-367): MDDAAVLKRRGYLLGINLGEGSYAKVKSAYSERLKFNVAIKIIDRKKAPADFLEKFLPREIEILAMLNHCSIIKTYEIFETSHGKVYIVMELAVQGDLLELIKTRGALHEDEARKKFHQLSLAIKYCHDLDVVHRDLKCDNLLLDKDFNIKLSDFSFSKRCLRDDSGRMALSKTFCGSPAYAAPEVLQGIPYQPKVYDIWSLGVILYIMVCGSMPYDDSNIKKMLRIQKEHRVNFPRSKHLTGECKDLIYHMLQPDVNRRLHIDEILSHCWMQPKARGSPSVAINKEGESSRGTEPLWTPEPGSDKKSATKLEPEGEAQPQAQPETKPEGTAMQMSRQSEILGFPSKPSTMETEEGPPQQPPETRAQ
Outline: as §1

ZAP70 = biological target: T18, ZAP70 (Homo sapiens, UniProt P43403)
T18 construct: purchased Invitrogen (Life Technologies) SelectScreen Z'-LYTE
T18 sequence (P43403 1-619): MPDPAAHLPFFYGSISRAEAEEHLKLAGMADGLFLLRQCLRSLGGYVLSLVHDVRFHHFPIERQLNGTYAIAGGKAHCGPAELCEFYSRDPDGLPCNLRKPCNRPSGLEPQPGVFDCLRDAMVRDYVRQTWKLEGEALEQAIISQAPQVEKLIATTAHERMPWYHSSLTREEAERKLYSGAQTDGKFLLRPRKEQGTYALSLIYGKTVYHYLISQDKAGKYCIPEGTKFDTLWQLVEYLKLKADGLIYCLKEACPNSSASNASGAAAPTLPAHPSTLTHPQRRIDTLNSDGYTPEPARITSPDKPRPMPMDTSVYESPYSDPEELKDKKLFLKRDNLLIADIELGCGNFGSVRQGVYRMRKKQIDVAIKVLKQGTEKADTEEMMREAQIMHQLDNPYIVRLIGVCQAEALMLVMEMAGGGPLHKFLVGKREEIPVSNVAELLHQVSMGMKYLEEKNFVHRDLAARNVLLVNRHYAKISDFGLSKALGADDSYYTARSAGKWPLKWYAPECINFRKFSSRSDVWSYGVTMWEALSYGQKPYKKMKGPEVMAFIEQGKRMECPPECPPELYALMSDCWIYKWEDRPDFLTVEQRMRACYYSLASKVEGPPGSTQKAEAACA
Outline: as §1

| % inhibition of activity (PRKCE (PKC epsilon)) [%] | % inhibition of activity (FGFR3) [%] | % inhibition of activity (MAPK8 (JNK1)) [%] | % inhibition of activity (TEK (Tie2)) [%] | % inhibition of activity (MAPK3 (ERK1)) [%] | % inhibition of activity (MAPK10 (JNK3)) [%] | % inhibition of activity (KIT) [%] | % inhibition of activity (PRKCB1 (PKC beta I)) [%] | % inhibition of activity (Pak4) [%] | % inhibition of activity (SPHK1) [%] | % inhibition of activity (FLT1 (VEGFR1)) [%] | % inhibition of activity (ROCK2) [%] | % inhibition of activity (ROCK1) [%] | % inhibition of activity (MAP2K2 (MEK2)) [%] | % inhibition of activity (JAK2) [%] | % inhibition of activity (SRC) [%] | % inhibition of activity (STK22D (TSSK1)) [%] | % inhibition of activity (ZAP70) [%] | SMILES |
| --- | --- | --- | --- | --- | --- | --- | --- | --- | --- | --- | --- | --- | --- | --- | --- | --- | --- | --- |
| 62 | 31 | 9 | 0 | 18 | 5 | 7 | 58 | 99 | 4 | 5 | 10 | 5 | 20 | 14 | 74 | 90 | 10 | Cc1nc(Nc2[nH]nc3c2CN(C(=O)N[C@H](CN(C)C)c2ccccc2)C3(C)C)c2sccc2n1 [PF3758309, reference compound] |
| 25 | 0 | 79 | 2 | 4 | 45 | 32 | 18 | 6 | 0 | 14 | 7 | −2 | 15 | 0 | 16 | 12 | 3 | CCn1c(=O)c(-c2ccc(-c3cncc(C)n3)cc2Cl)cc2cnc(NCCC3CCN(C)CC3)nc21 [Frax1036] |

| SMILES | % inhibition of activity (PRKCE (PKC epsilon)) [%] | % inhibition of activity (FGFR3) [%] | % inhibition of activity (MAPK8 (JNK1)) [%] | % inhibition of activity (TEK (Tie2)) [%] | % inhibition of activity (MAPK3 (ERK1)) [%] | % inhibition of activity (MAPK10 (JNK3)) [%] | % inhibition of activity (KIT) [%] | % inhibition of activity (PRKCB1 (PKC beta I)) [%] | % inhibition of activity (Pak4) [%] | % inhibition of activity (SPHK1) [%] | % inhibition of activity (FLT1 (VEGFR1)) [%] | % inhibition of activity (ROCK2) [%] | % inhibition of activity (ROCK1) [%] | % inhibition of activity (MAP2K2 (MEK2)) [%] | % inhibition of activity (JAK2) [%] | % inhibition of activity (SRC) [%] | % inhibition of activity (STK22D (TSSK1)) [%] | % inhibition of activity (ZAP70) [%] |
| --- | --- | --- | --- | --- | --- | --- | --- | --- | --- | --- | --- | --- | --- | --- | --- | --- | --- | --- |
| CCn1c(=O)c(-c2ccc(-c3noc(C)n3)cc2Cl)cc2cnc(Nc3ccc(C4CCN(C)CC4)cc3)nc21 [Frax716] | 14 | 35 | 30 | 98 | 8 | 12 | 77 | 9 | 7 | −3 | 37 | 4 | 2 | 79 | 7 | 97 | 5 | 8 |
